Read-outs that look alike come from different tables or passages of the source.
Legend:
[1] = test system: U-373 MG; assay: Cell migration (phase-contrast microscopy); assay type: cell-based; settings: Homo sapiens, U373 MG, 22 h, read-out: Maximum effects (cell migration); for Emax at 0.1 µM: at 10^−7 M
Experimental: Cells of different cancer lines, i.e. U-373 MG (Glioma cancer) and A549 (Lung cancer) were seeded on culture flask 48 hours before the migration experiment. On the test day, cells were treated with or without the compound of example 2 in closed Falcon dishes containing a buffered medium at a controlled temperature (37.0±0.1° C.) for 12 or 22 hours, as noted in the right column of table 3. The compound of example 2 was used at three non-cytotoxic concentrations (10^−6 M, 10^−7M, 10^−8 M). Migration of the cells was observed by means of a CCD-camera mounted on a phase-contrast microscope. Statistical analysis of the migration, with the non-parametric Mann-Whitney test, was established for 25% and 50% of the most motile cells and for the entire cell population.

[2] = test system: DU-145; assay: Apoptosis by Annexin V flow cytometry, DU-145; assay type: cell-based, human
Experimental: We used flow cytometry (according to the protocol found in Mijatovic et al. Neoplasia 2006) to determine the percentages of PC-3 and DU-145 positive cells for both Annexin V and propidium iodide and we observed that a maximum of 10% only of PC-3 or DU-145 cells underwent apoptotic processes following a treatment with 10 μM of the compound produced according to example 2 or example 7.
The determination of the percentage of cells undergoing apoptosis was performed using an Annexin V-FITC Apoptosis Detection Kit (Sigma) following the manufacturer's instructions. Each sample was evaluated in triplicate.

[3] = test system: Rb, pRb; assay: Western blot of Rb and p-Rb, PC-3; assay type: cell-based, human; settings: 10 μM, 48 and 72 hours
Experimental: Cell extracts were prepared by the lysis of subconfluent PC-3 cells directly in boiling lysis buffer (10 mM Tris, pH 7.4, 1 mM Na3O4V, 1% SDS, pH 7.4). Approximately 40 μg of extracted proteins (evaluated by the bicinchoninic acid protein assay; Pierce, Perbio Science, Erembodegem, Belgium) was then loaded onto a denaturing polyacrylamide gel. The proteins submitted to Western blot analyses were detected using primary antibodies provided by: 1) CST Technologies, Bioké, Leiden, The Netherlands: Rb (1:2000) and p-Rb (1:1000); 2) BD Transduction Laboratories, Erembodegem, Belgium: E2F1 (1:400); and 3) AbCam, Cambridge, UK: tubulin (1:3000, used as a loading control). The antibody for LC-3 protein (1:500) was kindly provided by Dr. Yasuko Kondo. Western blot analyses were performed as detailed previously.

[4] = test system: CXCL1, CXCL2, CXCL3, CXCL5, CXCL6, and CXCL8 chemokines; assay: CXCL chemokine expression (microarray and ELISA), PC-3; assay type: cell-based, human; settings: 1 μM five times a week
Experimental: Two different Quantikine ELISA kits (R&D Systems, Abingdon, UK) for the quantification of human CXCL1 and CXCL8 (IL-8) were used in this study in accordance with the manufacturer's instructions. Cell culture supernatants were collected after different treatments and periods, with multiple aliquots taken and stored at −20° C. until analysis.

[5] = test system: CCL2, CXCL-I and CXCL-8; assay: ELISA of CCL2, CXCL1 and CXCL8, Hs683 cells; assay type: cell-based, human; settings: 1 μM single or 5×1
[6] = test system: PC-3 Human Prostate Cancer Cells; assay: Affymetrix whole genome microarray, gene targets; settings: mRNA
Experimental: We performed a first experiment of evaluation of gene targets by means of Affymetrix whole genome microarray using human PC-3 cancer cells grown in vitro and treated with the compound of the invention (N-{2-[2-(dimethylamino)ethyl]-1,3-dioxo-2,3-dihydro-1H-benzo[de]isoquinolin-5-yl}urea) either one time at 1 μM or 10 μM, or 5 times a week (one time a day during five consecutive days) at 1 μM (Full genome analyses were performed at the VIB MicroArray Facility (UZ Gasthuisberg, Catholic University of Leuven, Belgium) using Affymetrix Human Genome U133 set Plus 2.0 (High Wycombe, United Kingdom).
Full genome-wide analyses were performed at the VIB MicroArray Facility (UZ Gasthuisberg, Catholic University of Leuven, Leuven, Belgium) using the Affymetrix Human Genome U133 set Plus 2.0 (High Wycombe, UK).
In addition to R, an open-source software environment for statistical computing, a set of functions called BioConductor was used for the analysis and comprehension of the genomic data. The quality controls in the Affymetrix microarray experiments were performed with the Simpleaffy package and agreed with Affymetrix guidelines. The background correction, expression quantification and normalization were performed using Robust Multichip Analysis. To select differentially expressed genes between two experimental conditions, probes for which no overlap occurred between intervals in the expression values obtained for each condition were first identified. The fold change between two experimental conditions was computed for each of these probes (without any value overlap) as the ratio between the two nearest unlog expression values observed for the two different conditions (i.e., the ratio closest to 1 between any two values from the two different conditions). Probes for which these ratios were above 2.0 or below 0.50 were then selected. The annotations of the genes finally selected in this way were retrieved from the Affymetrix Web site through the BioConductor package ghgu133plus2.h. […] This software package was then used to rank functional clusters by means of the statistical overrepresentation of individual genes in specific categories relative to all the genes in the same category on the microarray.

[7] = test system: MXT-HI mammary tumor; assay: Syngeneic MXT-HI mammary tumor s.c., with or without irradiation; settings: for Mean tumor size: UNBS5162 i.v. (5i × 3w) 10 mg/kg, alone or with 10 gray; for Number of mice dead or sacrificed: 11 mice per group
Experimental: The MXT-HI models used in our laboratory involve subcutaneously injecting MXT-HI tumor fragments into the flanks of B6D2F1 mice.
After the adaptation period, animals were inoculated subcutaneously with MXT-HI tumor. Briefly, “bank animals” were sacrificed and MXT-HI tumors were isolated from the animals, kept in saline solution and minced into 1 mm^3 pieces. These pieces (one/animal) were randomly s.c. inoculated into the right flanks of mice by means of a trocar.
UNBS5162 was dosed intravenously in accordance with UNBS procedure #002. The dosing volume was fixed at 200 μL/mouse. Group 1: Control (lactic acid vehicle) (5i/week×3 weeks) Group 2: UNBS5162 (10 mg/kg, 5i/week×3 weeks) Group 3: Irradiated (10 gray, 1 irradiation) Group 4: Irradiated (10 gray, 1 irradiation)+UNBS5162 (10 mg/kg, 5i/week×3 weeks) For group 4, the first administration of UNBS5162 was performed at the morning of the day of irradiation (5 Dec. 2007).
Briefly, animals were anaesthetized, using a syringe, with 150 μl of Rompun/Ketalar mixture (1 part Rompun/1 part Ketalar/4.5 parts saline) injected intraperitoneally. After approximately 5 minutes and after verification that animals were completely asleep, an irradiation simulation was performed first to focalise irradiation in the tumor centre and to avoid to irradiate healthy tissue. Simulation was performed individually on each animal to adapt irradiation to tumor size. In a second time, the tumor was irradiated with a dose of 10 gray (5 MV photons from a linear accelerator at a source skin distance of 1 m).
For technical reasons, irradiation was not performed the same day for all animals. Tumor irradiation was performed on day 14 post-graft for group 4 (irradiated+UNBS5162) and on day 16 post-graft for group 3 (irradiated alone).
Tumor growths were recorded 3 times weekly on Monday, Wednesday and Friday.
Statistical comparisons between the control group and the treated groups were performed with the non-parametric Mann-Whitney U-test. Survival analysis was done either by calculating the % T/C-value or with Kaplan-Meier analysis and Log-rank statistics. All statistical analyses were carried out using Statistica software (Statsoft, Tulsa, Okla.). The cut-off level for statistical significance was set at a p-value of p<0.05.
The T/C-values were calculated by dividing the day of death or sacrifice of the median mouse in a treated group T by the day of death or sacrifice of the median mouse in the control group C, the latter said to be 100%.

[8] = 1 μM once a day for five consecutive days
[9] = UNBS5162 10 mg/kg i.v. 5i×3w, alone or with 1×10 gray

`CN(C)CCN1C(=O)c2cccc3cc(NC(N)=O)cc(c23)C1=O` [UNBS5162, N-{2-[2-(dimethylamino)ethyl]-1,3-dioxo-2,3-dihydro-1H-benzo[de]isoquinolin-5-yl}urea] was tested, and the Emax at 0.1 µM ([1]; 22 hours on the 25% of the most motile cells) was -29%, the Emax at 0.1 µM ([1]; 22 hours on the 50% of the most motile cells) was -24% and the Emax ([1]; 22 hours on the 100% of cells, at the 10^−7 M) was -20%. The “cells undergoing apoptotic processes (Annexin V and propidium iodide positive)” value ([2]; 10 μM) was ≤ 10%, the “induction of real (early) apoptosis” value ([2]; flow cytometry) was “does not induce real (early) apoptosis” and the “late apoptotic and necrotic events” value ([2]; flow cytometry) was “induces late apoptotic and necrotic events”. For the same compound, the Rb protein expression [3] was “completely abolished Rb protein expression”, the “expression of proangiogenic CXCL chemokines (mRNA and protein)” value [4] was “dramatically decreased” and the “CCL2, CXCL-I and CXCL-8 production (ELISA)” value [5] was “a marked UNBS5162-mediated decrease in CCL2, CXCL-I and CXCL-8 production”. For the same compound, the “ALDH1A3 Expression Level: 5 × 1 μM” value [6, 8] was 3.7, the “ASNS Expression Level: 5 × 1 μM” value [6, 8] was 0.9 and the “BCAT1 Expression Level: 5 × 1 μM” value [6, 8] was 0.8. For the same compound, the “CBS Expression Level: 5 × 1 μM” value [6, 8] was 1.0, the “CTH Expression Level: 5 × 1 μM” value [6, 8] was 0.9 and the “H2BFS Expression Level: 5 × 1 μM” value [6, 8] was 0.5. The “HIST1H2AC Expression Level: 5 × 1 μM” value [6, 8] was 0.2, the “HIST1H2BC Expression Level: 5 × 1 μM” value [6, 8] was 0.7 and the “HIST1H2BD Expression Level: 5 × 1 μM” value [6, 8] was 0.3. The “HIST1H2BG Expression Level: 5 × 1 μM” value [6, 8] was 0.5, the “HIST1H2BK Expression Level: 5 × 1 μM” value [6, 8] was 0.3 and the “HIST1H3D Expression Level: 5 × 1 μM” value [6, 8] was 0.6. The “HIST1H3H Expression Level: 5 × 1 μM” value [6, 8] was 0.6, the “HIST2H2AA Expression Level: 5 × 1 μM” value [6, 8] was 0.5 and the “HIST2H2BE Expression Level: 5 × 1 μM” value [6, 8] was 0.3. For the same compound, the “PHGDH Expression Level: 5 × 1 μM” value [6, 8] was 1.0, the “SARS Expression Level: 5 × 1 μM” value [6, 8] was 0.9 and the “SAT Expression Level: 5 × 1 μM” value [6, 8] was 0.8. The “ALDH1A3 CT versus 1 μM” value ([6]; one time at 1 μM) was 0.7, the “ASNS CT versus 1 μM” value ([6]; one time at 1 μM) was 1.3 and the “CBS CT versus 1 μM” value ([6]; one time at 1 μM) was 1.0. The “CTH CT versus 1 μM” value ([6]; one time at 1 μM) was 1.1, the “H2AFY CT versus 1 μM” value ([6]; one time at 1 μM) was 1.7 and the “HIST1H2AC CT versus 1 μM” value ([6]; one time at 1 μM) was 1.0. For the same compound, the “HIST1H3D CT versus 1 μM” value ([6]; one time at 1 μM) was 0.9, the “PHGDH CT versus 1 μM” value ([6]; one time at 1 μM) was 1.4 and the “SARS CT versus 1 μM” value ([6]; one time at 1 μM) was 1.0. For the same compound, the “SAT CT versus 1 μM” value ([6]; one time at 1 μM) was 1.1, the “ALDH1A3 Expression Level: 10 μM” value ([6]; one time at 10 μM) was 2.3 and the “ASNS Expression Level: 10 μM” value ([6]; one time at 10 μM) was 3.6. For the same compound, the “BCAT1 Expression Level: 10 μM” value ([6]; one time at 10 μM) was 2.1, the “CBS Expression Level: 10 μM” value ([6]; one time at 10 μM) was 2.2 and the “CTH Expression Level: 10 μM” value ([6]; one time at 10 μM) was 2.0. The “H2AFY Expression Level: 10 μM” value ([6]; one time at 10 μM) was 2.6, the “H2BFS Expression Level: 10 μM” value ([6]; one time at 10 μM) was 0.5 and the “HIST1H2AC Expression Level: 10 μM” value ([6]; one time at 10 μM) was 0.4. For the same compound, the “HIST1H2BC Expression Level: 10 μM” value ([6]; one time at 10 μM) was 0.4, the “HIST1H2BD Expression Level: 10 μM” value ([6]; one time at 10 μM) was 0.3 and the “HIST1H2BG Expression Level: 10 μM” value ([6]; one time at 10 μM) was 0.4. For the same compound, the “HIST1H2BK Expression Level: 10 μM” value ([6]; one time at 10 μM) was 0.5, the “HIST1H3D Expression Level: 10 μM” value ([6]; one time at 10 μM) was 0.4 and the “HIST1H3H Expression Level: 10 μM” value ([6]; one time at 10 μM) was 0.3. For the same compound, the “HIST2H2AA Expression Level: 10 μM” value ([6]; one time at 10 μM) was 0.4, the “HIST2H2BE Expression Level: 10 μM” value ([6]; one time at 10 μM) was 0.5 and the “PHGDH Expression Level: 10 μM” value ([6]; one time at 10 μM) was 2.4. For the same compound, the “SARS Expression Level: 10 μM” value ([6]; one time at 10 μM) was 2.6, the “SAT Expression Level: 10 μM” value ([6]; one time at 10 μM) was 0.5 and the Mean tumor size ([7]; Day 14) was 178.52 mm^2. It also gave a Mean tumor size ([7]; Day 16) of 250.08 mm^2, a Mean tumor size ([7]; Day 19) of 414.11 mm^2 and a Mean tumor size ([7]; Day 21) of 423.71 mm^2. The Mean tumor size ([7]; Day 23) was 481.56 mm^2, the Mean tumor size ([7]; Day 26) was 619.21 mm^2 and the “effect on tumor area” value [7, 9] was “no relevant effects”. The “survival of MXT-HI-bearing mice” value [7, 9] was “No prolongation of survival”, the “Number of mice dead or sacrificed” value ([7]; day 19 post graft) was 1 and the “Number of mice dead or sacrificed” value ([7]; day 21 post graft) was 2. The “Number of mice dead or sacrificed” value ([7]; day 23 post graft) was 3, the “Number of mice dead or sacrificed” value ([7]; day 26 post graft) was 4 and the “Number of mice dead or sacrificed” value ([7]; day 28 post graft) was 1.

Reference: patent US20090186915A1, “Compositions and methods for treatment of glioblastoma, gliosarcoma, NSCLC, and head and neck cancer” (Unibioscreen S. A., priority 2006, published 2009)
